Consider 23 molecules from patent US8993752B2, “Neprilysin inhibitors” (Theravance Biopharma R&D IP, LLC, priority 2011, dated 2015).

Structures are written as SMILES.

T1 sequence (P08473 whole entry): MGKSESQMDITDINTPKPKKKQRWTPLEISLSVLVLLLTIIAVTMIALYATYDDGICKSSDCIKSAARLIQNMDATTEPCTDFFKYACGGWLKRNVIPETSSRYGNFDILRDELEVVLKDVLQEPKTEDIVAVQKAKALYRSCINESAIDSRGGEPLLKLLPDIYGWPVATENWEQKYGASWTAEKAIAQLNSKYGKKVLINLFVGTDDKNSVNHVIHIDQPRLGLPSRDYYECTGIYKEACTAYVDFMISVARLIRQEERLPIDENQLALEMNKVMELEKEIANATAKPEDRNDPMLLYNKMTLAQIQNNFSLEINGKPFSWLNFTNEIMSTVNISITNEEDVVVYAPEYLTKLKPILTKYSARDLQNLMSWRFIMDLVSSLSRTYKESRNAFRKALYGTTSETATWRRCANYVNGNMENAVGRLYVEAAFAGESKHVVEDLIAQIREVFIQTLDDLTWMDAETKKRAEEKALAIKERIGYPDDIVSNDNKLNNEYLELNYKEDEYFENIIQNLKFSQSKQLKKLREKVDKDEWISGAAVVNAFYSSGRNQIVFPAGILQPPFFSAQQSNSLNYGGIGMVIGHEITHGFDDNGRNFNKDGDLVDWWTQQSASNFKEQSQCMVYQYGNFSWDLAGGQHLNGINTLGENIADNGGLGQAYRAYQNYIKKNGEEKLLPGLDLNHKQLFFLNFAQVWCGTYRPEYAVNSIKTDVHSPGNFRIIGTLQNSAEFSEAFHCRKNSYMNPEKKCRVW

The experiment concerns the target T1, human NEP (Homo sapiens, UniProt P08473).
T1 construct: purchased R&D Systems, Minneapolis, Minn; 1182-ZN
As to the kind of experiment: In vitro enzyme inhibition assay at human NEP (fluorogenic peptide substrate). Format: biochemical. The note with it: recombinant human NEP; substrate Mca-D-Arg-Arg-Leu-Dap-(Dnp)-OH 10 μM; 37° C.; values given as ranges; read-out: pKi values at human NEP (converted). The method, boiled down:
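Recombinant human NEP pre-incubated 30 min at 37 °C with compound (10 μM to 20 pM), then 10 μM Mca-D-Arg-Arg-Leu-Dap-(Dnp)-OH in 50 mM HEPES pH 7.5, 100 mM NaCl, 0.01% Tween-20, 10 μM ZnSO4. Stopped after 20 min with acetic acid, fluorescence read at 320/405 nm; Ki from nonlinear fit, reported as pKi.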
As to `O=C(N[C@H](Cc1ccccc1C(F)(F)F)[C@@H](O)C(=O)O)c1cc(C(=O)N2CC[C@@H](O)C2)[nH]n1` [Example 6-10, (2R,3R)-2-Hydroxy-3-{[5-((R)-3-hydroxy-pyrrolidine-1-carbonyl)-1H-pyrazole-3-carbonyl]-amino}-4-(2-trifluoromethyl-phenyl)-butyric acid], the Ki is 1.26 to 10 nM.

For `O=C(N[C@H](Cc1ccccc1C(F)(F)F)[C@@H](O)C(=O)O)c1cc(C(=O)N2CC[C@H](C(=O)O)C2)[nH]n1` [Example 6-11, (S)-1-{5-[(1R,2R)-2-Carboxy-2-hydroxy-1-(2-trifluoromethyl-benzyl)-ethylcarbamoyl]-2H-pyrazole-3-carbonyl}-pyrrolidine-3-carboxylic acid], the Ki is 1.26 to 10 nM. Then `O=C(N[C@H](Cc1ccccc1)[C@@H](O)C(=O)O)c1cc(C(=O)O)n(Cc2ccc(Cl)cc2F)n1` [Example 8-1, 5-((1R,2R)-1-Benzyl-2-carboxy-2-hydroxy-ethylcarbamoyl)-2-(4-chloro-2-fluoro-benzyl)-2H-pyrazole-3-carboxylic acid], with 1.26 to 10 nM. Under `O=C(N[C@H](Cc1ccccc1)[C@@H](O)C(=O)O)c1cc(C(=O)O)n(Cc2c(F)cc(Cl)cc2F)n1` [Example 8-3, 5-((1R,2R)-1-Benzyl-2-carboxy-2-hydroxy-ethylcarbamoyl)-2-(4-chloro-2,6-difluoro-benzyl)-2H-pyrazole-3-carboxylic acid] stands 1.26 to 10 nM.

As to `O=C(N[C@H](Cc1ccccc1)[C@@H](O)C(=O)O)c1cc(C(=O)O)n(Cc2cccc(F)c2)n1` [Example 8-4, 5-((1R,2R)-1-Benzyl-2-carboxy-2-hydroxy-ethylcarbamoyl)-2-(3-fluoro-benzyl)-2H-pyrazole-3-carboxylic acid], the Ki is 1.26 to 10 nM.

With `COc1cccc(Cn2nc(C(=O)N[C@H](Cc3ccccc3)[C@@H](O)C(=O)O)cc2C(=O)O)c1` [Example 8-5, 5-((1R,2R)-1-Benzyl-2-carboxy-2-hydroxy-ethylcarbamoyl)-2-(3-methoxy-benzyl)-2H-pyrazole-3-carboxylic acid], the Ki was 1.26 to 10 nM. Under `O=C(N[C@H](Cc1ccccc1)[C@@H](O)C(=O)O)c1cc(C(=O)O)n(Cc2ccc(Cl)cc2)n1` [Example 8-6, 5-((1R,2R)-1-Benzyl-2-carboxy-2-hydroxy-ethylcarbamoyl)-2-(4-chloro-benzyl)-2H-pyrazole-3-carboxylic acid] stands 1.26 to 10 nM. Then `O=C(N[C@H](Cc1ccccc1)[C@@H](O)C(=O)O)c1cc(C(=O)O)n(Cc2ccccc2)n1` [Example 8-8, 2-Benzyl-5-((1R,2R)-1-benzyl-2-carboxy-2-hydroxy-ethylcarbamoyl)-2H-pyrazole-3-carboxylic acid], with 1.26 to 10 nM; and `O=C(N[C@H](Cc1ccccc1)[C@@H](O)C(=O)O)c1cc(C(=O)O)n(Cc2ccc(F)cc2)n1` [Example 8-9, 5-((1R,2R)-1-Benzyl-2-carboxy-2-hydroxy-ethylcarbamoyl)-2-(4-fluoro-benzyl)-2H-pyrazole-3-carboxylic acid], with 1.26 to 10 nM. Under `O=C(N[C@H](Cc1ccccc1)[C@@H](O)C(=O)O)c1cc(C(=O)O)[nH]n1` [Example 8-10, 5-((1R,2R)-1-Benzyl-2-carboxy-2-hydroxy-ethylcarbamoyl)-2H-pyrazole-3-carboxylic acid] stands 12.6 to 100 nM. For `O=C(N[C@H](Cc1ccccc1)[C@@H](O)C(=O)O)c1cc([N+](=O)[O-])[nH]n1` [Example 8-11, (2R,3R)-2-Hydroxy-3-[(5-nitro-1H-pyrazole-3-carbonyl)-amino]-4-phenyl-butyric acid], the Ki is 12.6 to 100 nM. Then `CCn1nc(C(=O)N[C@H](Cc2ccccc2)[C@@H](O)C(=O)O)cc1C(=O)O` [Example 8-12, 5-((1R,2R)-1-Benzyl-2-carboxy-2-hydroxy-ethylcarbamoyl)-2-ethyl-2H-pyrazole-3-carboxylic acid], with 12.6 to 100 nM. Under `COCCn1nc(C(=O)N[C@H](Cc2ccccc2)[C@@H](O)C(=O)O)cc1C(=O)O` [Example 8-13, 5-((1R,2R)-1-Benzyl-2-carboxy-2-hydroxy-ethylcarbamoyl)-2-(2-methoxy-ethyl)-2H-pyrazole-3-carboxylic acid] stands 12.6 to 100 nM.

As to `O=C(N[C@H](Cc1ccccc1)[C@@H](O)C(=O)O)c1cc(C(=O)O)n(CCO)n1` [Example 8-14, 5-((1R,2R)-1-Benzyl-2-carboxy-2-hydroxy-ethylcarbamoyl)-2-(2-hydroxy-ethyl)-2H-pyrazole-3-carboxylic acid], the Ki was 12.6 to 100 nM. Then `O=C(N[C@H](Cc1ccccc1)[C@@H](O)C(=O)O)c1cc(C(=O)O)n(Cc2cccnc2)n1` [Example 8-15, 5-((1R,2R)-1-Benzyl-2-carboxy-2-hydroxy-ethylcarbamoyl)-2-pyridin-3-ylmethyl-2H-pyrazole-3-carboxylic acid], with 12.6 to 100 nM. Under `O=C(N[C@H](Cc1ccccc1)[C@@H](O)C(=O)O)c1ccn(Cc2ccc(Cl)cc2)n1` [Example 8-16, (2R,3R)-3-{[1-(4-Chloro-benzyl)-1H-pyrazole-3-carbonyl]-amino}-2-hydroxy-4-phenyl-butyric acid] stands 12.6 to 100 nM. Then `CN(C)C(=O)c1cc(C(=O)N[C@H](Cc2ccccc2)[C@@H](O)C(=O)O)nn1Cc1ccc(Cl)cc1` [Example 8-17, (2R,3R)-3-{[1-(4-Chloro-benzyl)-5-dimethylcarbamoyl-1H-pyrazole-3-carbonyl]-amino}-2-hydroxy-4-phenyl-butyric acid], with 12.6 to 100 nM; and `O=C(N[C@H](Cc1ccccc1)[C@@H](O)C(=O)O)c1cc(C(=O)N2CCOCC2)n(Cc2ccc(Cl)cc2)n1` [Example 8-18, (2R,3R)-3-{[1-(4-Chloro-benzyl)-5-(morpholine-4-carbonyl)-1H-pyrazole-3-carbonyl]-amino}-2-hydroxy-4-phenyl-butyric acid], with 12.6 to 100 nM; and `CCCc1cc(C(=O)N[C@H](Cc2ccccc2)[C@@H](O)C(=O)O)nn1Cc1ccccc1` [Example 8-19, (2R,3R)-3-[(1-Benzyl-5-propyl-1H-pyrazole-3-carbonyl)-amino]-2-hydroxy-4-phenyl-butyric acid], with 12.6 to 100 nM. `COc1ccc(Cn2nc(C(=O)N[C@H](Cc3ccccc3)[C@@H](O)C(=O)O)cc2C2CC2)cc1` [Example 8-20, (2R,3R)-3-{[5-Cyclopropyl-1-(4-methoxy-benzyl)-1H-pyrazole-3-carbonyl]-amino}-2-hydroxy-4-phenyl-butyric acid]: the Ki is 1.26 to 10 nM. Under `COc1ccc(Cn2nc(C(=O)N[C@H](Cc3ccccc3)[C@@H](O)C(=O)O)cc2C2CC2)c(F)c1F` [Example 8-21, (2R,3R)-3-{[5-Cyclopropyl-1-(2,3-difluoro-4-methoxy-benzyl)-1H-pyrazole-3-carbonyl]-amino}-2-hydroxy-4-phenyl-butyric acid] stands 1.26 to 10 nM. For `COc1c(F)c(F)c(Cn2nc(C(=O)N[C@H](Cc3ccccc3)[C@@H](O)C(=O)O)cc2C2CC2)c(F)c1F` [Example 8-22, (2R,3R)-3-{[5-Cyclopropyl-1-(2,3,5,6-tetrafluoro-4-methoxy-benzyl)-1H-pyrazole-3-carbonyl]-amino}-2-hydroxy-4-phenyl-butyric acid], the Ki was at most 1 nM. For the molecule `CSc1ccc(Cn2nc(C(=O)N[C@H](Cc3ccccc3)[C@@H](O)C(=O)O)cc2C2CC2)cc1` [Example 8-23, (2R,3R)-3-{[5-Cyclopropyl-1-(4-methylsulfanyl-benzyl)-1H-pyrazole-3-carbonyl]-amino}-2-hydroxy-4-phenyl-butyric acid], the Ki was 12.6 to 100 nM.
